The record followed here is ChEMBL document CHEMBL1156042, “First stereoselective total synthesis and anticancer activity of new amide alkaloids of roots of pepper” (Bioorg Med Chem Lett, 2009).

One may read the IC50 as the point on the concentration scale where inhibition reaches its midpoint.

Common to all, as to assay type: functional, cell-based
Assay [1] relates to A549. In words: Anticancer activity against human A549 cells by MTT method. On the technique in general: Tetrazolium assays rely on reduction of a dye to a coloured formazan, in cell work by metabolically active cells.
Assay [2] deals with HT-29. The assay is described as follows: Anticancer activity against human HT-29 cells by MTT method.
Assay [3] has as its system MCF7. In words: Anticancer activity against human MCF7 cells by MTT method.
Setting [4] is: Homo sapiens, A549, read-out: IC50.
Where [5] appears, read: Homo sapiens, HT-29, read-out: IC50.

Values after ≈ are worked out from the molar mass of the structure shown.

Regarding `CCCCC[C@@H](O)[C@@H](O)/C=C/C(=O)N1CCCCC1`, the 50% inhibitory concentration (IC50) in assay [1] (setting [4]) is 182 µg/mL (≈ 676 µM); in assay [2] (ht-29), “Not Active”; in assay [3], “Not Active”.
Regarding `CCCCC[C@@H](O)[C@H](O)/C=C/C(=O)N1CCCCC1`, the IC50 in assay [1] (setting [4]) was 135 µg/mL (≈ 501 µM); in assay [2] (setting [5]) it was 125 µg/mL (≈ 464 µM); in assay [3], “Not Active”.
As to `CCC[C@@H](O)[C@H](O)/C=C/C(=O)NCC(C)C`, the IC50 result in assay [1] (a549) was “Not Active”; in assay [2] (setting [5]), 181 µg/mL (≈ 789 µM); in assay [3] it was “Not Active”.
